The values that follow come from ChEMBL document CHEMBL5042515, “Design and Evaluation of a Novel Peptide-Drug Conjugate Covalently Targeting SARS-CoV-2 Papain-like Protease” (J Med Chem, 2022).

Structures are written as SMILES. The source made the active and inactive calls. No cut-off for these calls is given here. *1 amine or outer side, *2 acyl side, *3 side chain or, on linkers, in order; H or OH if unused. Where a SMILES comes first, the peptide text is derived from it. Bridges are numbered along the chain shown (N, C = ends). [ ]: non-standard residue; d: D form. The star is where a group is joined. Met(S-mXyl) = C[S+](CC[C@H](N[*:1])C(=O)[*:2])Cc1cccc(C[*:3])c1; X1 = Cc1ccc(N*)cc1C(=O)NC(C)c1cccc2ccccc12

The assay concerns Severe acute respiratory syndrome coronavirus 2. The assay is described as follows: Covalent binding affinity to SARS-CoV-2 mutant PLpro Cys111S at 10 uM incubated for 2 hrs by SDS gel analysis.

Take `Cc1ccc(NC(=O)CC[C@H](N)C(=O)N[C@H]2CC[S+](C)Cc3cccc(c3)CSC[C@@H](C(=O)O)NC(=O)CNC(=O)[C@H](CCCNC(=N)N)NC(=O)[C@H](CC(C)C)NC2=O)cc1C(=O)NC(C)c1cccc2ccccc12` (stereo partly specified) (H-E(X1)[Met(S-mXyl)]LRGC-OH; thioether 2-6): the outcome was inactive.
